Measured values from patent US20170280720A1, “ARGININE […] INHIBITORS AND USES THEREOF” (EPIZYME, INC., priority 2014, published 2017).

molecular target: T1, human PRMT1 (Homo sapiens, UniProt Q99873); test: PRMT1 biochemical assay (3H-SAM Flashplate, peptide substrate); conditions: read-out: PRMT1_ IC50
T1 construct: GST-tagged PRMT1; made in house; host or cells: High Five insect cells (baculovirus, pFastBacI)
Summary of the method: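 FLAG-tagged full-length human PRMT1 (0.5 nM, GST-tagged, insect-cell expressed) preincubated 30 min at RT with compound, then biotinylated histone H4 36-50 peptide (20 nM) plus 200 nM 3H-SAM and 1.5 uM SAM in Bicine pH 7.6, 2% DMSO. 3H-methylated peptide captured on streptavidin Flashplate; IC50 from 3/4-parameter fit.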

T1 sequence (Q99873 with tags, fused parts or gaps): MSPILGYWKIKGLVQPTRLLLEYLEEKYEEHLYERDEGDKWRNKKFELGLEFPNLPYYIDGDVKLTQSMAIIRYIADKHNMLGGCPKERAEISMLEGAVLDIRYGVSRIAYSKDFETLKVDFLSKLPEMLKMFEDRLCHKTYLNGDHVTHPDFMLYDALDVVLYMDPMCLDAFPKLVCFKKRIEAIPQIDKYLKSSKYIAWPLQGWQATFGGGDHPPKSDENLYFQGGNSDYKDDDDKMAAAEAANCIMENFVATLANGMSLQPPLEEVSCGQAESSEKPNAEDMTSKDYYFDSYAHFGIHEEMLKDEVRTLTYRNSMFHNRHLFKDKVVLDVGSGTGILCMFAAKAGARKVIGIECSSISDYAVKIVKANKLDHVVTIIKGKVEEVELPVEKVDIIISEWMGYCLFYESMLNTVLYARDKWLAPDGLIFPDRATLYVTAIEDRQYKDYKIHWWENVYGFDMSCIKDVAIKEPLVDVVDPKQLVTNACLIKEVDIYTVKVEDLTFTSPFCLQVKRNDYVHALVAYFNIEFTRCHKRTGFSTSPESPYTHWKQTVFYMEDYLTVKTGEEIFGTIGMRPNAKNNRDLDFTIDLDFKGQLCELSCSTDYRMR

SMILES | IC50
CN(CCN)Cc1cccc(-c2nc(NCc3nccs3)c3cnn(C4CC4)c3n2)c1 [Compound 1] | 19.3 nM
CNCCN(C)Cc1cccc(-c2cc(C(=O)N[C@@H](C)c3ccccc3)c3cn[nH]c3n2)c1 [Compound 12] | 59.4 nM
CC(C)n1cc2c(N)cc(-c3cccc(CN(C)CCN)c3)nc2n1 [Compound 13] | 66.2 nM
COc1ccc(Cn2cnc3ccc(-c4ccc(CN(C)CCN)cc4)cc32)cc1 [Compound 16] | 69.6 nM
CNCCN(C)Cc1cccc(-c2nc(NCc3cc(C)nn3C)c3cnn(C4CC4)c3n2)c1 [Compound 17] | 69.7 nM
CN(CCN)Cc1cccc(-c2nc(NC3CCOCC3)c3cnn(C(C)(C)C)c3n2)c1 [Compound 18] | 72.8 nM
CN(CCN)Cc1ccc(-c2ccc3ncn(-c4ccccc4)c3c2)cc1 [Compound 19] | 82.3 nM
CNCCN(C)Cc1cccc(-c2cc(C(=O)NCC3CCOCC3)c3cnn(C4CCC4)c3n2)c1 [Compound 21] | 89 nM
Cc1nn(C(C)C)c2nc(-c3cccc(CN(C)CCN)c3)cc(N3CCOCC3)c12 [Compound 22, N1-(3-(1-isopropyl-3-methyl-4-morpholino-1H-pyrazolo[3,4-b]pyridin-6-yl)benzyl)-N1-methylethane-1,2-diamine] | 95.2 nM
CNCCN(C)Cc1cccc(-c2cc(C(=O)NCC3CCOCC3)c3cnn(C4CC4)c3n2)c1 [Compound 26] | 106 nM
CNCCN(C)Cc1cccc(-c2nc(NC3CCOCC3)c3cnn(C(C)(C)C)c3n2)c1 [Compound 27, N1-(3-(1-tert-butyl-4-(tetrahydro-2H-pyran-4-ylamino)-1H-pyrazolo[3,4-d]pyrimidin-6-yl)benzyl)-N1,N2-dimethylethane-1,2-diamine] | 106 nM
CNCCN(C)Cc1cccc(-c2ccc3ncn(C(C)C)c3c2)c1 [Compound 28] | 114 nM
CNCCN(C)Cc1cccc(-c2cc(C(=O)NC3CCOCC3)c3cnn(C4CCC4)c3n2)c1 [Compound 29] | 114 nM
CNCCN(C)Cc1cccc(-c2ccc3ncn(C4CCOCC4)c3c2)c1 [Compound 30] | 118 nM
CC(C)n1cnc2cc(-c3cccc(CN(C)CCN)c3)ccc21 [Compound 32] | 128 nM
CNCCN(C)Cc1cccc(-c2ccc3c(c2)ncn3CCOC)c1 [Compound 34] | 145 nM

SMILES | IC50
CNCCN(C)Cc1cccc(-c2ccc3cn(Cc4ccccc4)nc3n2)c1 [Compound 35] | 152 nM
CNCCN(C)Cc1cccc(-c2ccc3c(c2)ncn3C(C)C)c1 [Compound 36] | 153 nM
CNCCN(C)Cc1cccc(-c2cnc3c(c2)c(Br)nn3CC2CCOCC2)c1 [Compound 39] | 164 nM
CN(CCN)Cc1cccc(-c2nc(NCc3cccnc3)c3cnn(C4CC4)c3n2)c1 [Compound 40] | 168 nM
CC(C)n1cnc2cc(-c3ccc(CN(C)CCN)cc3)ccc21 [Compound 46] | 196 nM
CS(=O)(=O)N1CCC(Cn2cnc3ccc(-c4ccc(CNCCN)cc4)cc32)CC1 [Compound 129] | 821 nM
Cc1ccc(-n2cnc3cc(-c4ccc(CNCCN)cc4)ccc32)cc1 [Compound 131] | 841 nM
COc1ccc(Cn2cnc3ccc(-c4ccc(CNCCN)cc4)cc32)cc1 [Compound 132] | 848 nM
Cc1cc2cc(-c3ccc(CNCCN)cc3)ccc2[nH]1 [Compound 141] | 1110 nM
Cc1cccc(CCn2cnc3ccc(-c4ccc(CNCCN)cc4)cc32)c1 [Compound 143] | 1110 nM
CN(CCN)Cc1cccc(-c2cc(C(=O)NC3CCOCC3)c3cnn(CC(F)(F)F)c3n2)c1 [Compound 144] | 1200 nM
N#Cc1cccc(Cn2cnc3ccc(-c4ccc(CNCCN)cc4)cc32)c1 [Compound 145] | 1270 nM
NCCNCc1ccc(-c2cnc3c(c2)CCC(=O)N3)cc1 [Compound 156] | 2410 nM
NCCNCc1ccc(-c2ccc3ncn(C4CCNCC4)c3c2)cc1 [Compound 157] | 2430 nM
CC(C)n1cnc2ccc(-c3ccc(CNCCN)cc3)cc21 [Compound 166] | 5090 nM

The remaining lines, values ahead:

IC50 | SMILES
48.5 nM | CC(C)n1ncc2c(C(=O)N[C@@H](C)c3ccccc3)cc(-c3cccc(CN(C)CCN)c3)cc21 [Compound 10]
51.6 nM | CNCCN(C)Cc1cccc(-c2cc(NC3CC3)c3cnn(C(C)C)c3n2)c1 [Compound 11]
69.2 nM | CC(C)n1ncc2c(C(=O)NCc3ccccc3)cc(-c3cccc(CN(C)CCN)c3)cc21 [Compound 14]
69.6 nM | Cc1c(C(=O)NCc2ccccc2)cc(-c2cccc(CN(C)CCN)c2)c2cn[nH]c12 [Compound 15]
85 nM | CNCCN(C)Cc1cccc(-c2cc(Nc3ncc(C)s3)c3cnn(C(C)C)c3n2)c1 [Compound 20]
97.1 nM | CC(C)n1ncc2c(C(=O)N3CCc4ccccc4C3)cc(-c3cccc(CN(C)CCN)c3)nc21 [Compound 23]
97.4 nM | CNCCN(C)Cc1cccc(-c2cc(C(=O)N(C)Cc3ccccc3)c3cnn(C(C)C)c3n2)c1 [Compound 24]
105 nM | CC(C)n1ncc2c(C(=O)NCc3ccc(F)cc3)cc(-c3cccc(CN(C)CCN)c3)nc21 [Compound 25]
128 nM | CC(C)n1ncc2c(C(=O)N(C)Cc3ccccc3)cc(-c3cccc(CN(C)CCN)c3)nc21 [Compound 31]
140 nM | CCn1ncc2c(C(=O)N[C@@H](C)c3ccccc3)cc(-c3cccc(CN(C)CCNC)c3)nc21 [Compound 33]
154 nM | CC(C)n1ncc2c(C(=O)NCc3c(F)cccc3F)cc(-c3cccc(CN(C)CCN)c3)nc21 [Compound 37]
159 nM | CNCCN(C)Cc1cccc(-c2cc(C(=O)NCc3ccccc3F)c3cnn(C(C)C)c3n2)c1 [Compound 38]
172 nM | CC(C)n1ncc2c(NC3CC3)cc(-c3cccc(CN(C)CCN)c3)nc21 [Compound 41]
185 nM | CNCCN(C)Cc1cccc(-c2cc(C(=O)N3CCc4ccccc4C3)c3cnn(C(C)C)c3n2)c1 [Compound 42]
188 nM | CC(C)n1ncc2c(C(=O)N3CCCCC3)cc(-c3cccc(CN(C)CCN)c3)nc21 [Compound 43]
189 nM | CNCCN(C)Cc1cccc(-c2cc(C(=O)N[C@@H](C)c3ccccc3)c3cnn(C(C)C)c3n2)c1 [Compound 44]
194 nM | CNCCN(C)Cc1cccc(-c2cc(Oc3ccccc3)c3cnn(C(C)C)c3n2)c1 [Compound 45]
209 nM | CNCCN(C)Cc1cccc(-c2cc(C(=O)NCc3c(F)cccc3F)c3cnn(C(C)C)c3n2)c1 [Compound 47]
783 nM | CNC(=O)Nc1cc(-c2cccc(CN(C)CCN)c2)nc2c1cnn2C(C)C [Compound 126]
808 nM | CCC(=O)c1cc(-c2cccc(CN(C)CCNC)c2)nc2c1cnn2C(C)C [Compound 128]
833 nM | CNCCN(C)Cc1cc(-c2cc(C(=O)NC3CCOCC3)c3cnn(C(C)C)c3n2)ccc1F [Compound 130]
866 nM | CNCCN(C)Cc1cccc(-c2cc(NC(=O)NC3CCOCC3)c3cnn(C(C)C)c3n2)c1 [Compound 133]
925 nM | CC(C)n1ncc2c(C(=O)NCc3ccccc3)cc(-c3cccc(CNCCN)c3)cc21 [Compound 134]

IC50 | SMILES
932 nM | COc1cccc(Cc2nc3ccc(-c4ccc(CNCCN)cc4)cc3n2C(C)C)c1 [Compound 135]
934 nM | CC(C)n1ncc2c(C(=O)N[C@@H](C)c3ccccc3)cc(-c3cccc(CN(C)CCN)c3)nc21 [Compound 136]
985 nM | CNCCN(C)Cc1cccc(-c2cc(C(=O)NCc3cnn(C)c3C)c3cnn(C(C)C)c3n2)c1 [Compound 137]
1040 nM | CNCCN(C)Cc1cccc(-c2cc(NC(=O)NC)c3cnn(C(C)C)c3n2)c1 [Compound 138]
1050 nM | CNCCN(C)Cc1cccc(-c2cc(NS(=O)(=O)N(C)C)c3cnn(C(C)C)c3n2)c1 [Compound 139]
1110 nM | CN(CCN)Cc1cccc(-c2cc(C(=O)NC3CCOCC3)c3cnn(C4CC4)c3n2)c1 [Compound 142]
1480 nM | CC(C)n1ncc2c(C(=O)NC3CCOCC3)cc(-c3cccc(CN(C)CCN)c3)nc21 [Compound 148]
1600 nM | CC(C)n1ncc2c(C(=O)NCc3ccncc3)cc(-c3cccc(CNCCN)c3)nc21 [Compound 150]
1660 nM | CNCCN(C)Cc1cccc(-c2cc(N)c3cnn(C(C)C)c3n2)c1 [Compound 151]
1710 nM | CC(C)n1ncc2c(C(=O)N3CCCCC3)cc(-c3cccc(CNCCN)c3)nc21 [Compound 153]
2290 nM | CNCCN(C)Cc1cccc(-c2cc(OCC(F)(F)F)c3cnn(C(C)C)c3n2)c1 [Compound 154]
2300 nM | CC(C)n1ncc2c(C(=O)NCc3ccccc3)cc(-c3cccc(CNCCN)c3)nc21 [Compound 155]
3020 nM | CN(CCN)Cc1cccc(-c2cc(C(=O)NC3CCOCC3)c3cnn(C)c3n2)c1 [Compound 158]
3140 nM | CC(C)n1ncc2c(C(=O)NCc3ccccc3F)cc(-c3cccc(CNCCN)c3)nc21 [Compound 159]
4100 nM | CC(C)n1ncc2c(C(=O)N[C@@H](C)c3ccccc3)cc(-c3cccc(CNCCN)c3)nc21 [Compound 160]
4170 nM | CCS(=O)(=O)Nc1cc(-c2cccc(CN(C)CCNC)c2)nc2c1cnn2C(C)C [Compound 161]
4320 nM | CC(C)n1ncc2c(C(=O)NCC3CCN(C)CC3)cc(-c3cccc(CN(C)CCN(C)C)c3)nc21 [Compound 162]
4410 nM | CC(C)n1ncc2c(N3CCOCC3)cc(-c3cccc(CN(C)CCNC4CC4)c3)nc21 [Compound 163]
4500 nM | CNCCN(C)Cc1cccc(-c2cc(NS(=O)(=O)C(F)(F)F)c3cnn(C(C)C)c3n2)c1 [Compound 164]
5890 nM | CC(C)n1ncc2c(C(=O)NCC3CCOCC3)cc(-c3cccc(CN(C)CCNC4CC4)c3)nc21 [Compound 167]
7810 nM | CC(C)n1ncc2c(C(=O)NCc3c(F)cccc3F)cc(-c3cccc(CNCCN)c3)nc21 [Compound 168]
10000 nM | CNCCN(C)Cc1cccc(-c2cc(NS(C)(=O)=O)c3cnn(C(C)C)c3n2)c1 [Compound 169]
10000 nM | CNCCN(C)Cc1cccc(-c2cc(NS(C)(=O)=O)c3cnn(C(C)C)c3n2)c1 [Compound 170]
